We go through ten compounds from patent publication US5405843A, “Quinoline derivatives” (Mitsui Toatsu Chemicals, Incorporated, priority 1988, dated 1995).

SMILES strings stand for the structures.

For assay [1], the system named is Adriamycin resistant strain K562/ADM cells of human myeloleukemia K562 cells. As to the kind of experiment: Potentiating effect on activity of vincristine against adriamycin-resistant cells (growth inhibition). Type of assay: cell-based. The note with it: for effect in potentiating vincristine activity, multiples of the control: ratio to control IC50 655. The source says: Potentiating Effect of the Compounds on Activity of Anticancer Drugs

The test system of assay [2] is Adriamycin resistant strain 2780 AD cells of human ovarian cancer A2780 cells. As to the kind of experiment: Potentiating effect on incorporation of 3H-vincristine into adriamycin-resistant cancer cells. Type of assay: cell-based. The note with it: Homo sapiens, 2780AD, 2 h, 20 nM 3H-vincristine, control = 100, read-out: 3H-vincristine accumulation; for activity at 1 µg/mL: compound 1 μg/ml; for activity at 10 µg/mL: compound 10 μg/ml. The method in brief:
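Cells at 1×10^6/ml were grown 24 h, then incubated 2 h at 37 °C in RPMI-1640 with 20 nM ^3H-vincristine, 5% FCS and compound (solution at 1.0 or 10.0 μg/ml). After washing and lysis in 0.2N NaOH, cellular ^3H-vincristine was counted by scintillation.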

Assay [3] has as its system Vincristine-resistant strain P388/VCR cells of mouse leukemia P388 cells. As to the kind of experiment: Potentiating effect on vincristine in mice having vincristine-resistant mouse leukemia (survival). It is filed as in vivo, mouse (female CDFI mice). Conditions: peritoneal, once a day for 5 days; for T/C (rate of life prolongation): control = 100.
Assay [4] deals with drug-resistant cancer cells. Conditions: calcium antagonists such as verapamil; cited from earlier work.
Setting [5] is: compound 3 mg/kg + vincristine 100 ug/kg.
[6] abbreviates: compound 30 mg/kg + vincristine 100 ug/kg.
Where [7] appears, read: compound 10 mg/kg + vincristine 100 ug/kg.

Consider `OC(COc1cccc2ncccc12)CN1CCN(C2c3ccccc3CCc3ccccc32)CC1` (stereo not shown) [Example 2, 5-[3-(4-(Dibenzosuberane-5-yl)piperazine-1-yl)-2-hydroxypropoxy]quinoline], for which the results for the “effect in potentiating vincristine activity, multiples of the control” value in assay [1] (compound 0.3 μg/ml), in assay [1] (compound 1 μg/ml) and in assay [1] (compound 3 μg/ml) were 330.3, 388.0 and 550.0, respectively. Further, the activity at 1 µg/mL in assay [2] amounted to 663%. Further, the activity at 10 µg/mL in assay [2] came out at 709%. Moreover, the Average surviving period in assay [3] (setting [5]) is on record as 12.6 ± 0.2 days; in assay [3] (setting [6]), 15.2 ± 0.7 days. Further, the “T/C (rate of life prolongation)” value in assay [3] (setting [5]) is 113%; in assay [3] (setting [6]) it was 136%.

On to `CC[C@]1(O)C[C@H]2CN(CCc3c([nH]c4ccccc34)[C@@](C(=O)OC)(c3cc4c(cc3OC)N(C=O)[C@H]3[C@@](O)(C(=O)OC)[C@H](OC(C)=O)[C@]5(CC)C=CCN6CC[C@]43[C@@H]65)C2)C1` [Vincristine, vincristine, reference compound], for which the IC50 in assay [1] (Homo sapiens, K562, read-out: IC50 (vincristine concentration at which 50% of the growth was inhibited)) came to 0.655 µg/mL.

As to `OC(COc1cccc2ncccc12)CN1CCN(C(c2ccccc2)c2ccccc2)CC1` (stereo not shown) [Example 1, 5-[3-(4-Diphenylmethylpiperazine-1-yl)-2-hydroxypropoxy]quinoline], the entries for the “effect in potentiating vincristine activity, multiples of the control” value in assay [1] (compound 0.3 μg/ml), in assay [1] (compound 1 μg/ml) and in assay [1] (compound 3 μg/ml) were 151.2, 342.1 and 433.3, respectively. Further, the activity at 1 µg/mL in assay [2] amounted to 717%. Further, the activity at 10 µg/mL in assay [2] is 747%. Also, the Average surviving period in assay [3] (setting [5]) is recorded as 12.4 ± 0.2 days; in assay [3] (setting [7]), 12.2 ± 0.4 days; in assay [3] (setting [6]) it was 12.8 ± 0.4 days. For the same compound, the “T/C (rate of life prolongation)” value in assay [3] (setting [5]) is given as 111%; in assay [3] (setting [7]), 109%; in assay [3] (setting [6]), 114%.

As to `Cc1cc(C)c2c(OCC(O)CN3CCN(C(=O)N4c5ccccc5CCc5ccccc54)CC3)cccc2n1` (stereo not shown) [Example 61, 2,4-Dimethyl-5-[3-(4-(iminodibenzyl-5-carbonyl)piperazine-1-yl)-2-hydroxypropoxy]quinoline], in assay [2], the activity at 1 µg/mL came out at 519% and the activity at 10 µg/mL is 602%. Further, in assay [3] (setting [6]), the Average surviving period is 11.5 ± 0.3 days and the “T/C (rate of life prolongation)” value is given as 108%.

As for `OC(COc1cccc2ncccc12)CN1CCC(C2c3ccccc3CCc3ccccc32)CC1` (stereo not shown) [Example 81, 5-[3-(4-(Dibenzosuberane-5-yl)piperidine-1-yl)-2-hydroxypropoxy]quinoline], in assay [2], the activity at 1 µg/mL was 992%. Further, in assay [3] (setting [6]), the Average surviving period turned out to be 13.2 ± 0.9 days and the “T/C (rate of life prolongation)” value was determined as 123%.

Regarding `Cc1cc(C)c2c(OCC(O)CN3CCN(C(c4ccccc4)c4ccccc4)CC3)cccc2n1` (stereo not shown) [Example 5, 2,4-Dimethyl-5-[3-(4-diphenylmethylpiperazine-1-yl)-2-hydroxypropoxy]quinoline], in assay [2], the activity at 1 µg/mL is 732%. For the same compound, in assay [3] (setting [6]), the Average surviving period is on record as 12.8 ± 0.8 days and the “T/C (rate of life prolongation)” value is on record as 124%.

Consider `Cc1cc(C)c2c(OCC(O)CN3CCN(C4c5ccccc5COc5ccccc54)CC3)cccc2n1` (stereo not shown) [Example 21, 2,4-Dimethyl-5-[3-(4-(6,11-dihydrodibenzo[b,e]oxepine-11-yl)piperazine-1-yl)-2-hydroxypropoxy]quinoline], for which, in assay [2], the activity at 1 µg/mL was 727% and the activity at 10 µg/mL was determined as 745%. In addition, in assay [3] (setting [6]), the Average surviving period is on record as 12.5 ± 0.6 days and the “T/C (rate of life prolongation)” value is listed as 121%.

In the case of `COc1ccc(CCN(C)CCCC(C#N)(c2ccc(OC)c(OC)c2)C(C)C)cc1OC` (stereo not shown) [verapamil], the “prevention of discharge of anticancer drugs from cancer cells” value in assay [4] is recorded as “prevent discharge of anticancer drugs from cancer cells”.

In the case of `CN(CCCN1c2ccccc2CCc2ccccc21)CC(O)COc1cccc2ncccc12` (stereo not shown) [Example 82, 5-[3-(N-Methyl-N-(3-(5H-10,11-dihydrodibenzo(b,f)-azepin-5-yl)propyl)amino]-2-hydroxypropoxy]quinoline], the activity at 1 µg/mL in assay [2] was 667%. Further, in assay [3] (setting [6]), the Average surviving period was determined as 11.2 ± 1.4 days and the “T/C (rate of life prolongation)” value was found to be 105%.

Consider `O=C(N1CCN(CC(O)COc2cccc3ncccc23)CC1)N1c2ccccc2CCc2ccccc21` (stereo not shown) [Example 60, 5-[3-(4-(Iminodibenzyl-5-carbonyl)piperazine-1-yl)-2-hydroxypropoxy]quinoline], for which, in assay [2], the activity at 1 µg/mL was 643% and the activity at 10 µg/mL turned out to be 760%. For the same compound, in assay [3] (setting [6]), the Average surviving period turned out to be 12.4 ± 0.7 days and the “T/C (rate of life prolongation)” value was 117%.
